Measurements published in patent US9777015B2, “Useful thiophene derivatives in the treatment of diabetes” (METABRAIN RESEARCH, priority 2012, dated 2017).
Where a name gives a salt, the structure may show the parent alone. Read-outs that look alike come from different tables or passages of the source.

Tested on: hepatocytes isolated from Wistar rat liver
Assay: Test of inhibition of hepatic production of glucose (isolated hepatocytes, 3 h or 20 h incubation)
Format: cell-based
Details: for activity at 50 µM / activity at 100 µM: Rattus norvegicus, Hepatocyte, hepatic glucose production, rat hepatocytes; for activity at 50 µM: compound at 50 μM, read-out: HGP % of ctrl @ 50 μM; for activity at 100 µM: compound at 100 μM, read-out: HGP % of ctrl @ 100 μM
Method: The hepatocytes are isolated from Wistar rat liver having fasted for 24 h after perfusion of collagenase in the portal vein. The freshly isolated hepatocytes are sown in 6-well plates coated with collagen and containing an adhesion medium (Williams Medium). After adhesion, the medium is replaced with RPMI 1640 medium without any glucose, containing hydrocortisone (7.10^−5M) for a duration from 16 to 18 h. The next day, the glucose hepatic production test is conducted in a Krebs medium for 3 h. The basal conditions are cells incubated with only Krebs, the stimulated conditions are the cells placed in Krebs+lactate+pyruvate, the produced conditions are the cells exposed to chemical compounds in a Krebs/lactate/pyruvate medium. In the case when the compounds are dissolved in DMSO, all the conditions of the tests are met in the presence of a final concentration of 0.1% DMSO. The positive control of the test is the mercaptopicolinate known for its inhibitory action on hepatic production of glucose via the phosphoenolpyruvate carboxykinase. For short term treatments, the compounds are incubated for 3 h. For long term treatments, the compounds are incubated for 20 h at the moment when the hepatocytes are cultivated in RPMI and then added during the hepatic production test for 3 h. At the end of the 3 hours of incubation, the supernatant is recovered for measurement of glucose with a colorimetric method using glucose oxidase. The cells are lysed with a 0.1% NaOH aqueous solution in order to measure the amount of protein with the Lowry method. The results are expressed in mmols of glucose per mg of protein.

With `CCOC(=O)Cc1cc(C(=O)c2ccccc2OC)sc1-c1ccc(OC)cc1` [compound 23, ethyl 2-(5-(2-methoxybenzoyl)-2-(4-methoxyphenyl)thiophen-3-yl)acetate] as the molecule, how does the activity at 50 µM (3 h, 3 h incubation) read?
The activity at 50 µM was 79%.

What about the activity at 100 µM (3 h, 3 h incubation) of the same molecule?
The activity at 100 µM was 73%.

Which activity at 50 µM (3 h, 3 h incubation) does the source give for `CCOC(=O)Cc1cc(C(=O)c2cccc(OC)c2)sc1-c1ccc(Cl)cc1` [compound 12, ethyl 2-(2-(4-chlorophenyl)-5-(3-methoxybenzoyl)thiophen-3-yl)acetate] here?
The activity at 50 µM was 70%.

What about the activity at 100 µM (3 h, 3 h incubation) of the same molecule?
Its activity at 100 µM is 53%.

`COc1ccc(C(=NO)c2cc(CC(=O)O)c(-c3ccc(Cl)cc3)s2)cc1` [compound 109, 2-(2-(4-chlorophenyl)-5-((hydroxyimino)(4-methoxyphenyl)methyl)thiophen-3-yl)acetic acid] was tested. Which activity at 50 µM (3 h, 3 h incubation) did it give?
The activity at 50 µM was 69%.

What about the activity at 100 µM (3 h, 3 h incubation) of the same molecule?
Its activity at 100 µM is 27%.

Which activity at 50 µM (3 h, 3 h incubation) does the source give for `COc1ccc(C(=O)c2cc(CC(N)=O)c(-c3ccc(Cl)cc3)s2)cc1` [compound 86, 2-(2-(4-chlorophenyl)-5-(4-methoxybenzoyl)thiophen-3-yl)acetamide] here?
The activity at 50 µM was 77%.

What about the activity at 100 µM (3 h, 3 h incubation) of the same molecule?
The activity at 100 µM was 72%.

How did the activity at 50 µM (3 h, 3 h incubation) turn out when `COc1ccc(C(=O)c2cc(CC(=O)NCCN(C)C)c(-c3ccc(Cl)c(Cl)c3)s2)cc1` [compound 166, 2-[2-(3,4-dichlorophenyl)-5-(4-methoxybenzoyl)-3-thienyl]-N-(2-dimethylaminoethyl)acetamide] was run?
The activity at 50 µM was 71%.

What about the activity at 100 µM (3 h, 3 h incubation) of the same molecule?
Its activity at 100 µM is 65%.

Which activity at 50 µM (3 h, 3 h incubation) does the source give for `COc1ccc(-c2sc(C(=O)C3CCCCC3)cc2CC(=O)O)cc1` [compound 46, 2-(5-(cyclohexanecarbonyl)-2-(4-methoxyphenyl)thiophen-3-yl)acetic acid] here?
The activity at 50 µM was 74%.

What about the activity at 100 µM (3 h, 3 h incubation) of the same molecule?
The activity at 100 µM was 55%.

`COc1ccc(NC(=O)c2cc(CC(=O)O)c(-c3ccc(Cl)cc3)s2)cc1` [compound 121, 2-(2-(4-chlorophenyl)-5-((4-methoxyphenyl)carbamoyl)thiophen-3-yl)acetic acid] was tested. Which activity at 50 µM (3 h, 3 h incubation) did it give?
Its activity at 50 µM is 80%.

What about the activity at 100 µM (3 h, 3 h incubation) of the same molecule?
The activity at 100 µM was 66%.

Which activity at 50 µM (3 h, 3 h incubation) does the source give for `COc1ccc(C(=O)c2cc(CC(=O)O)c(-c3ccccc3)s2)cc1` [compound 51, 2-(5-(4-methoxybenzoyl)-2-phenylthiophen-3-yl)acetic acid] here?
The activity at 50 µM was 90%.

And the activity at 100 µM (3 h, 3 h incubation)?
Its activity at 100 µM is 54%.

For `COc1cc(Cl)ccc1C(=O)c1cc(CC(=O)O)c(-c2ccc(Cl)cc2)s1` [compound 156, 2-[5-(4-chloro-2-methoxy-benzoyl)-2-(4-chlorophenyl)-3-thienyl]acetic acid], which “inhibition of hepatic production of glucose” value (“inhibition” for short) (3 h incubation, with two doses) is on record?
The value was “strongest inhibitions”.

And the activity at 50 µM (3 h, 3 h incubation)?
Its activity at 50 µM is 21%.

And the activity at 100 µM (3 h, 3 h incubation)?
Its activity at 100 µM is 7%.

What does the source list for `O=C(O)Cc1cc(C(=O)c2ccco2)sc1-c1ccc(Cl)cc1F` [compound 144, 2-(2-(4-chloro-2-fluorophenyl)-5-(furan-2-carbonyl)thiophen-3-yl)acetic acid]?
activity at 50 µM (3 h, 3 h incubation): 74%; activity at 100 µM (3 h, 3 h incubation): 52%

For `CCONC(=O)Cc1cc(C(=O)c2ccco2)sc1-c1ccc(Cl)cc1` [compound 98, 2-(2-(4-chlorophenyl)-5-(furan-2-carbonyl)thiophen-3-yl)-N-ethoxyacetamide], which activity at 50 µM (3 h, 3 h incubation) is on record?
Its activity at 50 µM is 88%.

And the activity at 100 µM (3 h, 3 h incubation)?
The activity at 100 µM was 74%.

`COc1ccc(C(=O)c2cc(CC(=O)O)c(-c3ccc(Cl)c(Cl)c3)s2)cc1` [compound 81, 2-(2-(3,4-dichlorophenyl)-5-(4-methoxybenzoyl)thiophen-3-yl) acetic acid] was tested. Which activity at 50 µM (3 h, 3 h incubation) did it give?
The activity at 50 µM was 106%.

And the activity at 100 µM (3 h, 3 h incubation)?
The activity at 100 µM was 54%.

Which results are given for `COc1ccc(C(=O)c2cc(CC(=O)NC(=N)N)c(-c3ccc(Cl)c(Cl)c3)s2)cc1` [compound 184, N-carbamimidoyl-2-[2-(3,4-dichlorophenyl)-5-(4-methoxybenzoyl)-3-thienyl]acetamide hydrochloride]?
activity at 50 µM (3 h, 3 h incubation): 68%; activity at 100 µM (3 h, 3 h incubation): 80%

With `COc1ccc(C(=O)c2cc(CC(=O)O)c(-c3ccc(Cl)cc3)s2)cc1` [compound 60, 2-(2-(4-chlorophenyl)-5-(4-methoxybenzoyl)thiophen-3-yl) acetic acid] as the molecule, how does the activity at 50 µM (3 h, 3 h incubation) read?
Its activity at 50 µM is 74%.

And the activity at 100 µM (3 h, 3 h incubation)?
Its activity at 100 µM is 53%.

With `COc1ccc(C(=O)c2cc(CC(=O)NO)c(-c3ccc(Cl)cc3)s2)cc1` [compound 100, 2-(2-(4-chlorophenyl)-5-(4-methoxybenzoyl)thiophen-3-yl)-N-hydroxyacetamide] as the molecule, how does the “inhibition” value (20 h incubation, with two doses) read?
Its value is “strongest inhibitions”.

What about the activity at 50 µM (20 h, 20 h incubation) of the same molecule?
Its activity at 50 µM is 43%.

What about the activity at 100 µM (20 h, 20 h incubation) of the same molecule?
Its activity at 100 µM is 20%.

`CCOC(=O)CN(C)C(=O)Cc1cc(C(=O)c2ccc(OC)cc2)sc1-c1ccccc1` [compound 87, ethyl 2-(2-(5-(4-methoxybenzoyl)-2-phenylthiophen-3-yl)-N-methylacetamido)acetate] was tested. Which activity at 50 µM (3 h, 3 h incubation) did it give?
The activity at 50 µM was 77%.

And the activity at 100 µM (3 h, 3 h incubation)?
Its activity at 100 µM is 73%.

What does the source list for `COc1cccc(C(=O)c2cc(CC(=O)O)c(-c3ccccc3)s2)c1` [compound 50, 2-(5-(3-methoxybenzoyl)-2-phenylthiophen-3-yl)acetic acid]?
activity at 50 µM (3 h, 3 h incubation): 97%; activity at 100 µM (3 h, 3 h incubation): 75%

What does the source list for `COC(=O)Cc1cc(C(=O)c2cccc(Cl)c2)sc1-c1ccccc1` [compound 2, methyl 2-(5-(3-chlorobenzoyl)-2-phenylthiophen-3-yl)acetate]?
activity at 50 µM (3 h, 3 h incubation): 83%; activity at 100 µM (3 h, 3 h incubation): 62%

Which activity at 50 µM (3 h, 3 h incubation) does the source give for `O=C(O)Cc1cc(C(=O)Cc2ccc(F)cc2)sc1-c1ccccc1` [compound 54, 2-(5-(2-(4-fluorophenyl)acetyl)-2-phenylthiophen-3-yl)acetic acid] here?
The activity at 50 µM was 85%.

What about the activity at 100 µM (3 h, 3 h incubation) of the same molecule?
Its activity at 100 µM is 74%.

Which results are given for `COC(=O)Cc1cc(C(=O)c2cccc(OC)c2)sc1-c1ccccc1` [compound 4, methyl 2-(5-(3-methoxybenzoyl)-2-phenylthiophen-3-yl)acetate]?
activity at 50 µM (3 h, 3 h incubation): 77%; activity at 100 µM (3 h, 3 h incubation): 75%

`O=C(O)Cc1cc(C(=O)c2cccc(Cl)c2)sc1-c1ccc(Cl)cc1` [compound 58, 2-(5-(3-chlorobenzoyl)-2-(4-chlorophenyl)thiophen-3-yl)acetic acid] was tested. Which “inhibition” value (3 h incubation, with two doses) did it give?
The value was “strongest inhibitions”.

What about the activity at 50 µM (3 h, 3 h incubation) of the same molecule?
Its activity at 50 µM is 51%.

And the activity at 100 µM (3 h, 3 h incubation)?
Its activity at 100 µM is 25%.

With `COc1ccc(C(=O)c2cc(CC(=O)NC(=N)N)c(-c3ccc(Cl)cc3)s2)cc1.Cl` [compound 185, N-carbamimidoyl-2-(2-(4-chlorophenyl)-5-(4-methoxybenzoyl)thiophen-3-yl) acetamide hydrochloride] as the molecule, how does the “inhibition” value (3 h incubation, with two doses) read?
Its value is “strongest inhibitions”.

What about the activity at 50 µM (3 h, 3 h incubation) of the same molecule?
Its activity at 50 µM is 54%.

What about the activity at 100 µM (3 h, 3 h incubation) of the same molecule?
Its activity at 100 µM is 28%.

`O=C(O)Cc1cc(C(=O)c2ccco2)sc1-c1ccc(Cl)c(Cl)c1` [compound 159, 2-[2-(3,4-dichlorophenyl)-5-(furan-2-carbonyl)-3-thienyl]acetic acid] was tested. Which “inhibition” value (3 h incubation, at the dose of 50 μM) did it give?
The value was “strongest inhibitions”.

What about the activity at 50 µM (3 h, 3 h incubation) of the same molecule?
The activity at 50 µM was 40%.
